Results on four compounds are retold here after PMC3527734, “Peripheral injections of melanin-concentrating hormone receptor 1 antagonist S38151 decrease food intake and body weight in rodent obesity models” (Frontiers in Endocrinology, 2012).

Where no end group is shown, it is not given here.

One data set concerns C57BL/6J mice. In words: daily i.c.v. MCH, food intake and body weight in lean mice. Particulars: n = 10. It is filed as in vivo, mouse. Here is the method: (§1) For the MCH daily repeated i.c.v. injection studies, 13-week-old female C57BL/6J and ob/ob mice were used (Harlan, Gannat, France).
(§2) Figure 7 The effect of repeated daily central administration of MCH to lean (C57BL/6J) and obese (ob/ob) mice. C57BL/6J (A and B) and ob/ob (C and D) mice were administered MCH (5 μg/mouse/day) or artificial cerebrospinal fluid vehicle through i.c.v. injections for 5 consecutive days. Results are expressed as mean ± SEM (n = 10 mice per group). […] TEXT PRINTED IN THE PICTURE: (A) MCH: Food Intake/24h (g), C57BL/6J: Δ = 1.3 g | (B) MCH: Δ Body Weight (g), C57BL/6J: Δ = 1.3 g | (C) MCH: Food Intake/24h (g), ob/ob: Δ = 3.2 g | (D) MCH: Δ Body Weight (g), ob/ob: Δ = 2.1 g DOUBTS OF THE COPYIST ABOUT THIS PICTURE: The Δ values are printed beside the curve pairs with no substance label; I assigned them to MCH, reading them as the MCH versus Control difference.

For the next data set, the system named is ob/ob mice. Nature of the data set: daily i.c.v. MCH, food intake and body weight in obese mice. Particulars: MCH 5 μg/mouse/day i.c.v. for 5 days, n = 10. It is filed as in vivo. The method, then: as §1, §2
The subject of data set [1] is Zucker fa/fa rats. Nature of the data set: conditioned taste aversion. Format: in vivo, rat. Particulars: test days 4, 7, 11, 14 versus control; lithium chloride 75 mg/kg i.p.; S38151 20 nmol/kg i.c.v.; n = 10-11.
The test system of data set [2] is Zucker fa/fa rats. Particulars: cyclophosphamide 100 mg/kg i.p., S38151 20 nmol/kg (28 μg/kg) i.c.v., n = 8. The method, then:
These experiments were performed with modifications to previously described methods (Madden et al., [1999]). Rats were individually housed in wire-bottomed plastic cages with free access to both food pellets (6 mm diameter A03 UAR) and kaolin powder. The food pellets were presented in a small porcelain bowl on the floor of the cage. The kaolin powder was presented in a metal feeding dish attached to the inside of the cage. After a 2-week habituation period to these conditions, the animals were randomized into five treatment groups based on the quantity of food eaten during the stabilization period. In addition, those rats that consistently spilled the kaolin powder were eliminated from the study. One day after randomization, the animals were injected just before the beginning of the dark phase with either cyclophosphamide (100 mg/kg, i.p.), or S38151 [20 nmol/kg (28 μg/kg) i.c.v.] or vehicle [(artificial CSF) i.c.v.]. After injection, the quantity of kaolin and food ingested during the following 24-h period was determined. Food or kaolin spilled by the animals was collected at the end of the experiment, and total food and kaolin intake measurements were corrected for this loss.
Figure 5 The effects of S38151 on conditioned taste aversion and pica in Zucker fa/fa rats. (A) In the conditioned taste aversion test, after a period of habituation of the animals to the experimental protocol, Zucker fa/fa rats were presented with 0.2% saccharine for 20 min after drinking water was removed from their cages for 18 h (test day 0). Animals were then injected (i.p.) with vehicle or lithium chloride, or with S38151 (20 nmol/kg, i.c.v). On test days 4, 7, 11, and 14, rats were presented with 0.2% saccharine, and the quantity consumed during a 20-min period was determined. Results are expressed as mean ± SEM (n = 10–11 rats per group). […] (B) In the pica test, Zucker fa/fa rats were injected (i.c.v.) with 20 nmol/kg S38151, or an equivalent volume of artificial cerebrospinal fluid vehicle. Food and kaolin intake during the following 24-h period were each measured. Results are expressed as mean ± SEM (n = 8 rats per group).

The next data set concerns Wistar rats. Nature of the data set: NEI-MCH-induced food intake after acute i.c.v. injection. Format: in vivo, rat. Particulars: NEI-MCH alone or any combination of NEI-MCH and S38151, i.c.v. The source says: Wistar and Zucker fa/fa rats were anesthetized with Forène (Abbott Laboratories, Queenborough, UK), and a stainless steel guide cannula (Plastic Products Co, Roanoke, Va, USA) was stereotaxically implanted into the right lateral ventricle at the following coordinates relative to the bregma: AP −0.8 mm, L = −1.2 mm, and V = −3.5 mm. After a 7-day recovery period, during which the animals were handled each day to minimize non-specific stress, they were lightly anesthetized with Forène. Human/mouse/rat MCH (1 μg in a volume of 2.5 μ L, Bachem, Voisins-le-Bretonneux, France) or an equivalent volume of artificial cerebrospinal fluid (CSF) was then injected through the intraventricular cannula. Immediately after injection, the animals quickly recovered and were returned to their home cages. Only those animals responding within 2 h with a robust increase in food intake, indicating correct cannula placement, were used in the experiments described below. Two days after MCH injection, the rats were randomly assigned to different groups and studied in one of the following protocols.
Wistar rats were habituated for at least 2 weeks before experiment to a diet of food pellets (6 mm diameter) of the following composition: 67.5% food flour, 26.5% sucrose, 5% gum tragacanth, and 1.25% magnesium stearate (A03 UAR, Orge, France). The food pellets were present in a metal food hopper attached to the inside of each cage. At 09:00 on the day of study, the animals were lightly anesthetized with Forene® (Abbott, France). Thereafter, rats were injected intra-cerebroventricular (i.c.v.) with vehicle (artificial CSF) or with S38151 [0.5, 5, 10, 20, 30, or 50 nmol/kg ([…], 14, 28, 42, or 70 μg/kg, respectively)] in a volume of 2.5 μL, 20 min prior to the injection of human/rat NEI-MCH [5 nmol/kg (18.7 μg/kg) in a volume of 2.5 μL].
Food intake was measured at different times after peptide injection. Food spillage was carefully quantified during each time period, and intake measurements were corrected for this loss. At the end of the experiments, the animals were euthanized and the positions of the cannulae were assessed by the injection of 100 μ L Evans blue dye (2 mg/mL) followed by the visual examination of brain slices. Only data obtained from animals with correctly positioned cannulae were included in the final data analysis.
Figure 3 The effect of S38151 on NEI-MCH-induced food intake in Wistar rats after acute central administration. Satiated rats were injected (i.c.v.) at the beginning of the light phase with 5 μg NEI-MCH, 5 μg NEI-MCH + differing doses of S38151 (0.5–50 nmol/kg), or an equivalent volume of artificial cereblospinal fluid vehicle (5 μL). Cumulative food intake was measured at 1, 2, 4, 6, and 24 h post-injection.

Take Melanin-concentrating hormone [MCH]: the “Δ food intake vs. controls, day 5” value in the data set on C57BL/6J mice (MCH 5 μg/mouse/day (100 nmol/kg/day) i.c.v. for 5 days) was “+1.3 g”. In addition, the “Δ body weight vs. controls, day 5” value with C57BL/6J mice (MCH 5 μg/mouse/day i.c.v. for 5 days) is given as “+1.3 g”. In addition, in the data set on ob/ob mice, the “Δ body weight vs. controls, after 5 days” value is recorded as “+2.1 g” and the “Δ food intake vs. controls, day 5” value is recorded as “+3.2 g”.
Take `[Cl-].[Li+]` [lithium chloride, reference compound]: the 0.2% saccharine consumption entry in the data set on Zucker fa/fa rats [1] is “significant reduction”.
`O=P1(N(CCCl)CCCl)NCCCO1` (centres unmarked) [Cyclophosphamide, cyclophosphamide, reference compound]: the “kaolin intake, 24 h, pica test” value in the data set on Zucker fa/fa rats [2] (vehicle 0.05 ± 0.01 g) is reported as “significant increase”. Moreover, in the data set on Zucker fa/fa rats [2] (vehicle 27 ± 1 g), the “food intake, 24 h, pica test” value is listed as “nearly complete suppression”.
Take “NEI-MCH: stable precursor of melanin-concentrating hormone, human/rat NEI-MCH (EIGDEENSAKFPIGRRDFDMLRCMLGRVYRPCWQV; ends and bridges not checked; cysteine pairing not given here; UniProt P20382 131-165, looked up, fragment) [reference compound]”: in the data set on Wistar rats, the “food intake during the entire 24-h period versus control group” value was “not significantly altered”.
